This is an account of results in patent publication US20260109731A1, “NE[…] USE THEREOF” (HUNAN MINGRUI PHARMACEUTICAL CO., LTD., priority 2023, published 2026).

This series is described as follows: Pharmacokinetic analysis of tail vein administration in mice. Particulars: female, ICR, mouse, 5 mg/kg; for concentration at 5 min / concentration at 1 h / concentration at 8 h: brain; for clearance / half-life: plasma, iv. As for the experimental part: Female ICR mice (body weight: 20 g to 22 g) were purchased from BEIJING HFK BIOSCIENCE CO., LTD.
The animals were sacrificed at blood collection time points (5 min, 1 h and 8 h) for brain tissue collection, and the collected brain tissues were stored at −80° C. for later testing.
100 μL of plasma sample, 10 μL of internal standard solution (100 ng/mL testosterone D-3 solution), and 310 μL of acetonitrile were accurately measured, uniformly mixed by vortexing, and centrifuged (14000 rpm, 4° C.), and a resulting supernatant was taken to obtain the plasma sample.
About 100 mg of brain tissue sample was taken, and accurately weighed, 100 μL of water and 400 μL acetonitrile were accurately added thereto, and a resulting mixture was subjected to homogenization. 100 μL of brain tissue homogenate, 10 μL of internal standard solution (100 ng/mL testosterone D-3 solution), and 310 μL of acetonitrile were accurately measured, uniformly mixed by vortexing, and centrifuged (14000 rpm, 4° C.), and a resulting supernatant was taken to obtain the brain tissue sample.
100 μL of blank plasma sample, 10 μL of mixed standard solution, 10 μL of internal standard solution (100 ng/mL testosterone D-3 solution), and 300 μL of acetonitrile were accurately measured, uniformly mixed by vortexing, and centrifuged (14000 rpm, 4° C.), and a resulting supernatant was taken to obtain the plasma matrix standard solution.
About 100 mg of blank brain tissue sample was taken, and accurately weighed, 100 μL of water and 400 μL acetonitrile were accurately added thereto, and a resulting mixture was subjected to homogenization using a homogenizer. 100 μL of brain tissue homogenate, 10 μL of mixed standard solution, 10 μL of internal standard solution (100 ng/mL testosterone D-3 solution) and 300 μL of acetonitrile were accurately measured, uniformly mixed by vortexing, and centrifuged (14000 rpm, 4° C.), and a resulting supernatant was taken to obtain the Brain tissue matrix standard solution.
The UPLC-MS/MS method with testosterone D-3 as the internal standard was used to perform analysis and determination by the standard curve method.

One may read the Kp as the ratio of the level in a tissue or fluid to that in plasma or blood. One may read the clearance as the volume of plasma or blood freed of the substance per unit of time. The low end stands for a low capacity for elimination, the high end for a high capacity for elimination. In general, half-life refers to how long it takes for the measured level to halve. Lower therefore signals fast loss. Consider `CC(=O)[C@H]1CC[C@H]2[C@@H]3CC[C@H]4C[C@H](O[N+](=O)[O-])CC[C@]4(C)[C@H]3CC[C@]12C` [Compound 1], for which the clearance was 197 mL/min/kg and the half-life was 50.4 min. Where the note is “intravenous”, the concentration at 5 min came out at 1140 ng/g, the concentration at 1 h came out at 652 ng/g and the concentration at 8 h was found to be 31 ng/g. For the setting “brain/plasma, intravenous”, the Kp at 5 min stood at 0.65, the Kp at 1 h was determined as 7.58 and the Kp at 8 h was 2.27.
`CC(=O)[C@H]1CC[C@H]2[C@@H]3CC[C@H]4C[C@H](O)CC[C@]4(C)[C@H]3CC[C@]12C` [Allopregnanolone, 5α-pregnan-3α-ol-20-one, reference compound] gave a clearance of 218 mL/min/kg and a half-life of 40.8 min. Moreover, for the setting “intravenous”, the concentration at 5 min was determined as 1070 ng/g, the concentration at 1 h came out at 47.3 ng/g and the concentration at 8 h stood at 14.4 ng/g. In addition, where the note is “brain/plasma, intravenous”, the Kp at 5 min is 1.28 and the concentration ratio (Kp) at 1 h came to 2.71.
